Test results reported in patent publication US9056865B2, “Pyridine-2-derivatives as smoothened receptor modulators” (Pfizer Inc., priority 2010, dated 2015).

Legend:
Gli-Luc/MEF cells = assay: Gli-Luc/MEF assay; format: cell-based, mouse; settings: Mus musculus, MEF; Shh-stimulated luciferase, 48 hours
Experimental: The Gli-Luc/MEF cells obtained from Gli-Luc transgenic mice contain a luciferase reporter gene under the control of the Gli response element. Luciferase activity stimulated with Sonic hedgehog ligand was inhibited by Smo inhibitors, and IC50 was subsequently calculated.
Plates were incubated at 37° C. and 5% CO2 overnight. On day two, cells were dosed with test compounds at a final concentration ranging from 3 μM to 50 μM at a 3-time series dilution. Immediately after dosing cells with compounds, recombinant mouse sonic hedgehog (Shh, R&D Systems 464-SH) was added to a final concentration of 2 μg/mL. The cells were incubated with compounds and Shh for 48 hours at 37° C. and 5% CO2. Luciferase assays were conducted on Day 4 using the Bright-Glo Luciferase assay system (Promega E2620) according to Promega's protocol. Briefly, Bright-Glo luciferase reagent was made up and 25 μL were added to each well of the 384-well plate containing media. Plates were kept at room temperature for 5 minutes, and then read on an Envision Luminescence plate reader (Perkin-Elmer). IC50 of the inhibition was calculated by using GraphPad Prism.

human Smo = human Smo (Homo sapiens (Human), UniProt Q99835); assay: Smo radioligand competition binding assay; settings: for inhibition at 0.05 µM: 0.05 μM test compound, read-out: Smo % inh. @ 0.05 μM
Experimental: Smo Radioligand Competition Binding Assay
Membranes were prepared from a stable cell line created in HEK293FlpIn-TetR cells (Invitrogen) using Flp recombinase-mediated insertion of the pSecTag-FRT/V5-His vector containing a cDNA encoding amino acids […] of human Smo fused to the murine Igk leader sequence to produce a cell surface expressed Smo 181-781 protein. Hygromycin-resistant clones were obtained and stained for LacZ expression (no expression indicates a correct knock-in of fusion cDNA). LacZ-negative cells were analyzed for binding tritiated Smo antagonists. For membrane preparation, the HEK293 cells expressing Smo 181-781 were grown to 90% confluence in nine to fifteen 245 mm×245 mm×22 mm dishes, washed with Dulbecco's PBS (15 mL per dish) and harvested via scraping in 10 mL of DPBS. The cells were collected and centrifuged at 1500 rpm (400×g) for 10 min at 4° C. The cell pellets were re-suspended in 40 mL of cold DPBS and washed by centrifugation at 2300 rpm (950×g max) for 10 minutes at 4° C. The supernatant was aspirated and the cell pellet was snap frozen in a methanol/dry ice bath and stored at −70° C. For membrane preparation, 15 mL of Membrane Preparation Buffer (50 mM Tris-HCl pH 7.5, 250 mM sucrose with Roche complete protease cocktail tablets) was added to the tube containing the cell pellet, then cells are rapidly thawed, and homogenized using an Ultra-Turrax T8 (IKA Labortechnik) set on “6” for 15 seconds for 5-6 times in icy water bath. This homogenate was diluted up to 50 mL using Membrane Preparation Buffer and centrifuged at 35,000 rpm in a Beckman Ti45 rotor (140,000×g) for 35 minutes at 4° C. followed by aspiration of the supernatant and re-suspension of the pellet in 5 mL of Assay Buffer (50 mM Tris-HCl pH 7.5, 100 mM NaCl, 25 mM MgCl2, 1 mM EDTA, and 0.1% protease free bovine serum albumin). The re-suspended pellet was then homogenized in a glass tissue grinder. The re-suspended membranes were aliquoted (0.5 mL aliquots), snap frozen and stored at −70° C. Total protein in the membrane preparation was determined using the Pierce BCA protein assay (Pierce Chemical).
For the binding competition assay, 100 μL of Assay Buffer was added to all the wells of a 96 well GF/B filter plate (Millipore MultiScreen-HTS-FB cat# MSFBN6B50) for 10 minutes to pre-wet the filter prior to evacuation of the buffer (8 inches Hg for 8 seconds). To the pre-wet wells is added: 20 μL of Assay Buffer, 10 μL diluted test agent, 20 μL of a tritiated Smo antagonist (15 nM stock solution), and 50 μL of membrane preparation (40 μg total protein per well). The plates are sealed and mixed at room temperature for 5 min, incubated at room temperature for 2 hours, then washed 5 times with 100 μL/each of wash buffer and vacuum dried for 8 seconds at 8 inches Hg. The plate is then dried for one hour in a 60° C. oven prior to the addition of 45 μL of Microscint 20 (Packard, #6013621) to each well and incubation at RT for 30 minutes to 1 hour. The plate is counted in a TopCount scintillation counter (Perkin Elmer).
Data analysis uses Excel for % Inhibition and Graphpad Prism for IC50 calculation. Total binding (TB, in the absence of inhibitors)=average of tritiated Smo antagonist 3 nM+Smo membrane (40 μg/wells (approx 5000-7000 CPM)). Non-specific binding (NSB)=average of tritiated Smo antagonist (3 nM)+cold Smo antagonist (30 μM)+Smo membrane (approx 600-1200 CPM). Specific binding (SB)=(total binding−non-specific binding). % Inhibition=[1−(compound Specific binding/control Specific binding)]×100%. IC50 is calculated by fitting the data to the four parameter sigmoidal dose-response curve (variable slope) Y=Bottom+(Top-Bottom)/(1+10^((LogEC50−X)*HillSlope)). X is the logarithm of the inhibitor concentration. Y is the response; Y starts at Bottom and goes to Top with a sigmoid shape.

human Smo, sequence (Q99835 181-787): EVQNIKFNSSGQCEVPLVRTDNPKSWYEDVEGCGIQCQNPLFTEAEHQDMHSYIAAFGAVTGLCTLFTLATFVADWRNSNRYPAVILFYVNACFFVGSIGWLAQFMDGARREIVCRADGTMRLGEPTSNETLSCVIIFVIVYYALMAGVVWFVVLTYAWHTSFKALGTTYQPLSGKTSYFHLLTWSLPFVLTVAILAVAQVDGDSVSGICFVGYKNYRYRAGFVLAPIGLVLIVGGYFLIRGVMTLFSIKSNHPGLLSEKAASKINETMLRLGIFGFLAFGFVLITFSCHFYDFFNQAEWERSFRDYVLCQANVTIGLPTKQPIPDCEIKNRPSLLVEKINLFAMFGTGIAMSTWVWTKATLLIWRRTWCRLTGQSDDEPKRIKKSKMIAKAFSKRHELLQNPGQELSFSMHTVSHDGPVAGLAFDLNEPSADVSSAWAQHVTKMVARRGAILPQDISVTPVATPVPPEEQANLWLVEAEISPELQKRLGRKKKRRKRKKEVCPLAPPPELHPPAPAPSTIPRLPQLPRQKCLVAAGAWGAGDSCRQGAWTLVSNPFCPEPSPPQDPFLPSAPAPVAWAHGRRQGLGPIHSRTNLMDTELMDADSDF

SMILES	IC50 (Gli-Luc/MEF cells)	IC50 (human Smo)	inhibition at 0.05 µM (human Smo)
Cc1cccnc1-c1cc(N2CCC(CS(C)(=O)=O)CC2)ncc1Cl [Example A-51, 5′-chloro-3-methyl-2′-{4-[(methylsulfonyl)methyl]piperidin-1-yl}-2,4′-bipyridine]	23.6 nM	35.8 nM	87.8%
Cc1cccnc1-c1cc(N2CCC(NC(=O)CC(C)(C)O)CC2)ncc1Cl [Example A-52, N-(1-(5′-chloro-3-methyl-[2,4′-bipyridin]-2′-yl)piperidin-4-yl)-3-hydroxy-3-methylbutanamide]	28 nM	54.3 nM	90.6%
CS(=O)(=O)CC1CCN(c2ccc(Cl)c(-c3ccccn3)n2)CC1 [Example A-53, 3-chloro-6-{4-[(methylsulfonyl)methyl]piperidin-1-yl}-2,2′-bipyridine]	27.3 nM	38.2 nM	93.3%
Cc1cccnc1-c1cc(N2CCC(C(=O)NCc3ncc[nH]3)CC2)ncc1Cl [Example A-54, 1-(5′-chloro-3-methyl-2,4′-bipyridin-2′-yl)-N-(1H-imidazol-2-ylmethyl)piperidine-4-carboxamide]	55.4 nM	64.9 nM	86.1%
Cc1cccnc1-c1cc(N2CCC(C(=O)NC3(c4ccccn4)CC3)CC2)ncc1Cl [Example A-55, 1-(5′-chloro-3-methyl-2,4′-bipyridin-2′-yl)-N-(1-pyridin-2-ylcyclopropyl)piperidine-4-carboxamide]	25.2 nM	63.3 nM	83.7%
Cc1cccnc1-c1cc(N2CCC(C(=O)N3CCC(Nc4ccccn4)CC3)CC2)ncc1Cl [Example A-56, N-(1-{[1-(5′-chloro-3-methyl-2,4′-bipyridin-2′-yl)piperidin-4-yl]carbonyl}piperidin-4-yl)pyridin-2-amine]	41.6 nM	106 nM	80.5%
Cc1cccnc1-c1cc(N2CCC(C(=O)N[C@@H]3CCN(S(C)(=O)=O)C3)CC2)ncc1Cl [Example A-57, 1-(5′-chloro-3-methyl-2,4′-bipyridin-2′-yl)-N-[(3R)-1-(methylsulfonyl)pyrrolidin-3-yl]piperidine-4-carboxamide]	78.2 nM	90.7 nM	87.9%
Cc1cccnc1-c1cc(N2CCC(C(=O)N[C@@H]3c4ccccc4C[C@@H]3O)CC2)ncc1Cl [Example A-58, 1-(5′-chloro-3-methyl-2,4′-bipyridin-2′-yl)-N-[(1R,2S)-2-hydroxy-2,3-dihydro-1H-inden-1-yl]piperidine-4-carboxamide]	38.8 nM	184 nM	70.3%
COc1cnc(NC(=O)C2CCN(c3cc(-c4ncccc4C)c(Cl)cn3)CC2)cn1 [Example A-59, 1-(5′-chloro-3-methyl-2,4′-bipyridin-2′-yl)-N-(5-methoxypyrazin-2-yl)piperidine-4-carboxamide]	21.2 nM	71.4 nM	89.5%
Cc1cccnc1-c1cc(N2CCC(C(=O)N[C@H]3CCN(S(C)(=O)=O)C3)CC2)ncc1Cl [Example A-60, 1-(5′-chloro-3-methyl-2,4′-bipyridin-2′-yl)-N-[(3S)-1-(methylsulfonyl)pyrrolidin-3-yl]piperidine-4-carboxamide]	57.4 nM	67 nM	83.8%
Cc1cccnc1-c1cc(N2CCC(C(=O)NCCC3C(=O)Nc4ccccc43)CC2)ncc1Cl (stereo not drawn) [Example A-61, 1-(5′-chloro-3-methyl-2,4′-bipyridin-2′-yl)-N-[2-(2-oxo-2,3-dihydro-1H-indol-3-yl)ethyl]piperidine-4-carboxamide]	37.1 nM	40.9 nM	91.9%
Cc1cccnc1-c1cc(N2CCC(C(=O)N3CC(S(=O)(=O)CC4CC4)C3)CC2)ncc1Cl [Example A-62, 5′-chloro-2′-[4-({3-[(cyclopropylmethyl)sulfonyl]azetidin-1-yl}carbonyl)piperidin-1-yl]-3-methyl-2,4′-bipyridine]	106 nM	234 nM	72.4%
Cc1cccnc1-c1cc(N2CCC(C(=O)NC[C@H]3CCCO3)CC2)ncc1Cl [Example A-63, 1-(5′-chloro-3-methyl-2,4′-bipyridin-2′-yl)-N-[(2R)-tetrahydrofuran-2-ylmethyl]piperidine-4-carboxamide]	83.6 nM	137 nM	82.5%
Cc1cccnc1-c1cc(N2CCC(C(=O)NCC3(O)CCC3)CC2)ncc1Cl [Example A-64, 1-(5′-chloro-3-methyl-2,4′-bipyridin-2′-yl)-N-[(1-hydroxycyclobutyl)methyl]piperidine-4-carboxamide]	109 nM	157 nM	78.1%
Cc1cccnc1-c1cc(N2CCC(C(=O)N3CCc4c(c(C(C)C)nn4C)C3)CC2)ncc1Cl [Example A-65, 5′-chloro-2′-{4-[(3-isopropyl-1-methyl-1,4,6,7-tetrahydro-5H-pyrazolo[4,3-c]pyridin-5-yl)carbonyl]piperidin-1-yl}-3-methyl-2,4′-bipyridine]	124 nM	145 nM	78.5%
Cc1cccnc1-c1cc(N2CCC(C(=O)N[C@@H]3CC[C@@H](O)C3)CC2)ncc1Cl [Example A-66, 1-(5′-chloro-3-methyl-2,4′-bipyridin-2′-yl)-N-[(1R,3R)-3-hydroxycyclopentyl]piperidine-4-carboxamide]	94 nM	162 nM	81.7%
Cc1cccnc1-c1cc(N2CCC(C(=O)NCCS(C)(=O)=O)CC2)ncc1Cl [Example A-67, 1-(5′-chloro-3-methyl-2,4′-bipyridin-2′-yl)-N-[2-(methylsulfonyl)ethyl]piperidine-4-carboxamide]	164 nM	217 nM	70.4%
Cc1cccnc1-c1cc(N2CCC(C(=O)N[C@@H]3CS(=O)(=O)C[C@H]3O)CC2)ncc1Cl [Example A-68, 1-(5′-chloro-3-methyl-2,4′-bipyridin-2′-yl)-N-[(3S,4S)-4-hydroxy-1,1-dioxidotetrahydro-3-thienyl]piperidine-4-carboxamide]	54.4 nM	120 nM	88.8%
Cc1cccnc1-c1cc(N2CC(C(=O)N(C)[C@@H]3CS(=O)(=O)C[C@H]3O)C2)ncc1Cl [Example A-69, 1-(5′-chloro-3-methyl-2,4′-bipyridin-2′-yl)-N-[(3S,4S)-4-hydroxy-1,1-dioxidotetrahydro-3-thienyl]-N-methylazetidine-3-carboxamide]	148 nM	189 nM	74.4%
